Results: patent US9271487B2, “Protein stabilized antimicrobial composition formed by melt processing” (Kimberly-Clark Worldwide, Inc., priority 2010, dated 2016)

Experiment: Thymol Concentrations in Extractions (thymol released into liquid, HPLC)
Type: physicochemical
Conditions: neat thymol <250 microns, 2 g, 30 mins
Protocol: An aliquot of a sample was centrifuged at approximately 5000 rpm until visible settling occurred (approximately 30 minutes). […]. The contents were dissolved and diluted with a 0.1% AA:IPA (50:50) solution to volume. The solution was then filtered with Pall Acrodisc 0.45 micron nylon membrane. The thymol concentration was determined through “High Performance Liquid Chromatography (HPLC) analysis” according to the following conditions:
HPLC Equipment & Conditions
HPLC: Agilent 1100 HPLC system.
Column: Phenomenex Luna NH2 (5 μm, 250 mm×4.6 mm)-ambient
Detector: UV/Vis at 280 nm
Mobile Phases: (75:25) (IPA: 0.1% acetic acid)
Flow Rate: approximately 0.6 mL/min.
Injection Volume: approximately 15 μL

## Cc1ccc(C(C)C)c(O)c1 [thymol, Thymol]
0 g citric acid, 100 mL deionized water
  % Thymol (wt/wt) in extract solution: 0.084 % (wt/wt)
1.14 g citric acid, 97 mL deionized water
  % Thymol (wt/wt) in extract solution: 0.081 % (wt/wt)
